Experimental data as given in paper PMC10178785 (ACS Chemical Biology, 2023).
Like-named read-outs stand apart in the source and are kept apart here.

Columns and labels:
CHIKV Macro [1] = molecular target: T1, CHIKV Macro (Chikungunya virus, UniProt Q8JUX6); experiment: biochemical; type: binding
VEEV Macro [2] = molecular target: T2, VEEV Macro (Venezuelan equine encephalitis virus, UniProt P27282); experiment: biochemical; type: binding
human MacroD2 [3] = molecular target: T3, human MacroD2 (Homo sapiens, UniProt A1Z1Q3); experiment: biochemical; type: binding
T3 sequence (A1Z1Q3 59-240 limits assumed): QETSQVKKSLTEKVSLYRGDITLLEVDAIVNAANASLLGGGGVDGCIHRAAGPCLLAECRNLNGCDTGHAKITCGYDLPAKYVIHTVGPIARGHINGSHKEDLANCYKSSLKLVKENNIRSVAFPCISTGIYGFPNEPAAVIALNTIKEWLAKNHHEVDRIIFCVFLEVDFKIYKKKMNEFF

PARP9 Macro2 = PARP9 Macro2 (Homo sapiens, UniProt Q8IXQ6); experiment: biochemical; type: binding
MacroD1 [4] = molecular target: T4, MacroD1 (Homo sapiens, UniProt Q9BQ69); experiment: biochemical; type: binding
T4 sequence (Q9BQ69 141-322 limits assumed): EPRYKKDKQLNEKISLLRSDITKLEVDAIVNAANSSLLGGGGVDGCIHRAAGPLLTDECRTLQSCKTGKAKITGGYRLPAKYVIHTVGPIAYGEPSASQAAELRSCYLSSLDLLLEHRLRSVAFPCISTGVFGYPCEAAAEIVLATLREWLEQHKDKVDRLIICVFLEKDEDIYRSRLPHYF

MacroD1 [5] = molecular target: T4, MacroD1; type: binding
CHIKV Macro [6] = molecular target: T1, CHIKV Macro; type: binding
SARS-CoV-2 Macro1 [7] = molecular target: T5, SARS-CoV-2 Macro1 (Severe acute respiratory syndrome coronavirus 2, UniProt P0DTD1); type: binding
VEEV Macro [8] = molecular target: T2, VEEV Macro; type: binding
human MacroD2 [9] = molecular target: T3, human MacroD2; type: binding
MacroD1 [10] = molecular target: T4, MacroD1; details: cited from earlier work
SARS-CoV-2 Macro1 [11] = molecular target: T5, SARS-CoV-2 Macro1; experiment: biochemical; type: binding
SARS Macro1 = SARS Macro1 (Severe acute respiratory syndrome coronavirus 2, UniProt P0DTD1); type: biochemical, SARS-CoV-2
MacroD1 [12] = molecular target: T4, MacroD1; type: biochemical

T2 sequence (P27282 1330-1489 limits assumed): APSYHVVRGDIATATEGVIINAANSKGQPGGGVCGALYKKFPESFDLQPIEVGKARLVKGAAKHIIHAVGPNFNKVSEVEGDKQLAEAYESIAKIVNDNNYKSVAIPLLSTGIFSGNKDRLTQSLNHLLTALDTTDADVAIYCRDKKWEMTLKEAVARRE
T1 sequence (Q8JUX6 1334-1493 limits assumed): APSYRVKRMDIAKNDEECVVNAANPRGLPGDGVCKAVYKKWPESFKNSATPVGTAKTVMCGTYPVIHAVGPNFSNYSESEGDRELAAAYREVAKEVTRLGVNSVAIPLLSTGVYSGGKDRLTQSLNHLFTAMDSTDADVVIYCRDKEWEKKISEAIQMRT

Row | SMILES | IC50 (CHIKV Macro [1]) [µM] | IC50 (VEEV Macro [2]) [µM] | IC50 (human MacroD2 [3]) [µM] | IC50 (PARP9 Macro2) [µM] | IC50 (MacroD1 [4]) [µM] | IC50 (SARS-CoV-2 Macro1 [11]) [µM] | IC50 Fold Decrease Relative to ADPr: SARS Macro1 (SARS-CoV-2 Macro1 [11]) [fold] | also measured
1 | N#C[C@@]1(c2ccc3c(N)ncnn23)O[C@H](CO)[C@@H](O)[C@H]1O [GS-441524] | > 100 | > 100 | > 100 | > 100 | > 100 |  |  | 
2 | CN(C)c1ccc2c(c1)Oc1cc(N(C)C)ccc1C21OC(=O)c2cc(C(=O)NCCCCCCNC(=O)CCc3cn([C@H]4O[C@H](COP(=O)(O)OP(=O)(O)OC[C@H]5O[C@@H](n6cnc7c(N)ncnc76)[C@H](O)[C@@H]5O)[C@@H](O)[C@H]4O)nn3)ccc21 [TAMRA-ADPr] |  |  |  |  |  |  |  | mP shift (MacroD1 [5]): more than 100 mP; mP shift (CHIKV Macro [6]): ~70 mP; mP shift (SARS-CoV-2 Macro1 [7]): over 110 mP; mP shift (VEEV Macro [8]): ~70 mP; mP shift (human MacroD2 [9]): more than 100 mP
3 | Nc1ncnc2c1ncn2[C@@H]1O[C@H](COP(=O)(O)OP(=O)(O)OC[C@H]2OC(O)[C@H](O)[C@@H]2O)[C@@H](O)[C@H]1O (stereo partly drawn) [ADPr, adenine diphosphate ribose] |  |  |  |  |  |  |  | Kd (MacroD1 [10]): 0.72 µM; IC50 (VEEV Macro [2]; read-out: IC50 VEEV Macro): 18.3 ± 2.8 µM; IC50 (MacroD1 [4]; read-out: IC50 MacroD1): 1.42 ± 0.22 µM
4 | Nc1ncnc2c1ncn2[C@@H]1O[C@H](COP(=O)(O)O)[C@@H](O)[C@H]1O[C@@H]1O[C@H](COP(=O)(O)O)[C@@H](O)[C@H]1O [iso-ADPr] |  |  |  |  |  |  |  | Competition with the tracer in macrodomain binding (CHIKV Macro [1]): did not compete; Competition with the tracer in macrodomain binding (SARS-CoV-2 Macro1 [11]): did not compete; Competition with the tracer in macrodomain binding (VEEV Macro [2]): did not compete; Competition with the tracer in macrodomain binding (human MacroD2 [3]): did not compete; Competition with the tracer in macrodomain binding (PARP9 Macro2): did not compete; Competition with the tracer in macrodomain binding (MacroD1 [4]): did not compete
5 | [N-]=[N+]=NC1OC(COP(=O)(O)OP(=O)(O)OCC2OC(n3cnc4c(N)ncnc43)C(O)C2O)C(O)C1O (stereo not drawn) [ADPr-N3] |  |  |  |  |  | 7.23 ± 0.94 | ~2 | 
6 | Nc1ncnc2c1ncn2[C@@H]1O[C@H](COP(=O)(O)OP(=O)(O)OC[C@H]2O[C@H](Oc3ccc4c(C(F)(F)F)cc(=O)oc4c3)[C@H](O)[C@@H]2O)[C@@H](O)[C@H]1O [TFMU-ADPr, ADP-ribosylated trifluoromethyl umbelliferone] | 37.6 ± 12.3 | 4.24 ± 0.36 | 0.09 ± 0.02 | 10.9 ± 1.1 | 0.29 ± 0.02 | 0.59 | 25 | MAR hydrolysis activity of SARS Macro1 in the presence of inhibitor (SARS Macro1): lowered MAR hydrolysis activity; MAR hydrolysis activity of MacroD1 in the presence of inhibitor (MacroD1 [12]): lowered MAR hydrolysis activity
7 | Nc1ncnc2c1ncn2[C@@H]1O[C@H](COP(=O)(O)OP(=O)(O)OC[C@H]2O[C@H](Oc3ccc([N+](=O)[O-])cc3)[C@H](O)[C@@H]2O)[C@@H](O)[C@H]1O [pNP-ADPr, ADP-ribosylated p-nitrophenol] | 22.8 ± 5.7 | 10.7 ± 0.9 | 0.15 ± 0.01 | 4.5 ± 0.4 | 0.96 ± 0.07 | 0.37 | 40 | MAR hydrolysis activity of SARS Macro1 in the presence of inhibitor (SARS Macro1): lowered MAR hydrolysis activity; MAR hydrolysis activity of MacroD1 in the presence of inhibitor (MacroD1 [12]): lowered MAR hydrolysis activity
